According to article PMC7872314, “Modeling Bioavailable Concentrations in Zebrafish Cell Lines and Embryos Increases the Correlation of Toxicity Potencies across Test Systems” (Environmental Science & Technology, 2020):
Read-outs that look alike come from different tables or passages of the source.

Legend:
[1] = system: ZF4 (fibroblasts) cell line; experiment: MTS assay (MTS/BCA multiplex), NAD(P)H metabolism; assay type: cell-based, zebrafish (Danio rerio); conditions: Danio rerio, Fibroblast
[2] = system: ZFL (hepatocytes) cell line; experiment: cells; assay type: cell-based, zebrafish (Danio rerio); conditions: Danio rerio, Hepatocyte
[3] = system: ZF4 (fibroblasts) cell line; experiment: BCA assay (MTS/BCA multiplex), protein amount; assay type: cell-based, zebrafish (Danio rerio); conditions: Danio rerio, Fibroblast
[4] = system: ZFL (hepatocytes) cell line; experiment: cells; assay type: cell-based, zebrafish (Danio rerio); conditions: Danio rerio, Hepatocyte; remark: listed apart in the source
[5] = system: ZF4 (fibroblasts) cell line; experiment: ATP assay (ATP/LDH multiplex), ATP metabolism; assay type: cell-based, zebrafish (Danio rerio); conditions: Danio rerio, Fibroblast
[6] = system: ZFL (hepatocytes) cell line; experiment: cells; assay type: cell-based, zebrafish (Danio rerio); conditions: Danio rerio, Hepatocyte; remark: listed apart in the source
[7] = system: ZF4 (fibroblasts) cell line; experiment: alamarBlue (AB) endpoint of AB/CFDA/NR multiplex, cellular respiration; assay type: cell-based, zebrafish (Danio rerio); conditions: Danio rerio, Fibroblast
[8] = system: ZFL (hepatocytes) cell line; experiment: cells; assay type: cell-based, zebrafish (Danio rerio); conditions: Danio rerio, Hepatocyte; remark: listed apart in the source
[9] = system: ZF4 (fibroblasts) cell line; experiment: CFDA endpoint of AB/CFDA/NR multiplex, membrane stability; assay type: cell-based, zebrafish (Danio rerio); conditions: Danio rerio, Fibroblast
[10] = system: ZFL (hepatocytes) cell line; experiment: cells; assay type: cell-based, zebrafish (Danio rerio); conditions: Danio rerio, Hepatocyte; remark: listed apart in the source
[11] = system: ZF4 (fibroblasts) cell line; experiment: Neutral red, absorbance (NRa), AB/CFDA/NR multiplex, lysosome stability; assay type: cell-based, zebrafish (Danio rerio); conditions: Danio rerio, Fibroblast
[12] = system: ZFL (hepatocytes) cell line; experiment: cells; assay type: cell-based, zebrafish (Danio rerio); conditions: Danio rerio, Hepatocyte; remark: listed apart in the source
[13] = system: ZF4 (fibroblasts) cell line; experiment: Neutral red, fluorescence (NRf), AB/CFDA/NR multiplex, lysosome stability; assay type: cell-based, zebrafish (Danio rerio); conditions: Danio rerio, Fibroblast
[14] = system: ZFL (hepatocytes) cell line; experiment: cells; assay type: cell-based, zebrafish (Danio rerio); conditions: Danio rerio, Hepatocyte; remark: listed apart in the source
zebrafish embryos [15] = experiment: animal or person; assay type: in vivo, zebrafish (Danio rerio); conditions: for EC50: Danio rerio
ZF4 and ZFL cell lines = experiment: Cytotoxicity assays, all endpoints, both cell lines (mean/range); assay type: cell-based, zebrafish (Danio rerio); conditions: 48 h, mean of all cytotoxicity endpoints (without LDH) in ZF4 and ZFL
[16] = system: zebrafish cell lines vs zebrafish embryo; experiment: Potency ratios IC50;x/EC50;x (cytotoxicity assays vs mFET); design: species or system zebrafish (Danio rerio)
zebrafish embryos [17] = system: zebrafish embryos; design: method as in earlier work; conditions: nominal, cited from earlier work
[18] = ref Comptox, PubChem or DrugBank; cited from earlier work

SMILES: Cc1cc(-n2c(=O)[nH]c(=O)n(C)c2=O)ccc1Oc1ccc(SC(F)(F)F)cc1 [Toltrazuril, toltrazuril]
- IC50 ([1]; MTS - ZF4, log10 of IC50, read-out: LogIC50 (converted)): 175 µM
- IC50 ([1]; MTS - ZF4, read-out: IC50): 175 µM
- IC50 ([1]; ZF4, 48 h exposure, nominal, log10, read-out: logIC50 (log10 IC50;nom) MTS (converted)): 174 µM
- IC50 ([1]; ZF4, 48 h exposure, nominal, read-out: IC50;nom MTS): 175 µM
- IC50 ([2]; MTS - ZFL, log10 of IC50, read-out: LogIC50 (converted)): 62.8 µM
- IC50 ([2]; MTS - ZFL, read-out: IC50): 62.8 µM
- IC50 ([2]; ZFL, 48 h exposure, nominal, log10, read-out: logIC50 (log10 IC50;nom) MTS (converted)): 63.1 µM
- IC50 ([2]; ZFL, 48 h exposure, nominal, read-out: IC50;nom MTS): 62.8 µM
- IC50 ([3]; BCA - ZF4, log10 of IC50, read-out: LogIC50 (converted)): 141 µM
- IC50 ([3]; BCA - ZF4, read-out: IC50): 141 µM
- IC50 ([3]; ZF4, 48 h exposure, nominal, log10, read-out: logIC50 (log10 IC50;nom) BCA (converted)): 141 µM
- IC50 ([3]; ZF4, 48 h exposure, nominal, read-out: IC50;nom BCA): 141 µM
- IC50 ([4]; BCA - ZFL, log10 of IC50, read-out: LogIC50 (converted)): 294 µM
- IC50 ([4]; BCA - ZFL, read-out: IC50): 294 µM
- IC50 ([4]; ZFL, 48 h exposure, nominal, log10, read-out: logIC50 (log10 IC50;nom) BCA (converted)): 295 µM
- IC50 ([4]; ZFL, 48 h exposure, nominal, read-out: IC50;nom BCA): 294 µM
- IC50 ([5]; ATP - ZF4, log10 of IC50, read-out: LogIC50 (converted)): 43.8 µM
- IC50 ([5]; ATP - ZF4, read-out: IC50): 43.8 µM
- IC50 ([5]; ZF4, 48 h exposure, nominal, log10, read-out: logIC50 (log10 IC50;nom) ATP (converted)): 43.7 µM
- IC50 ([5]; ZF4, 48 h exposure, nominal, read-out: IC50;nom ATP): 43.8 µM
- IC50 ([6]; ATP - ZFL, log10 of IC50, read-out: LogIC50 (converted)): 20.3 µM
- IC50 ([6]; ATP - ZFL, read-out: IC50): 20.3 µM
- IC50 ([6]; ZFL, 48 h exposure, nominal, log10, read-out: logIC50 (log10 IC50;nom) ATP (converted)): 20.4 µM
- IC50 ([6]; ZFL, 48 h exposure, nominal, read-out: IC50;nom ATP): 20.3 µM
- IC50 ([7]; AB - ZF4, log10 of IC50, read-out: LogIC50 (converted)): 97.5 µM
- IC50 ([7]; AB - ZF4, read-out: IC50): 97.5 µM
- IC50 ([7]; ZF4, 48 h exposure, nominal, log10, read-out: logIC50 (log10 IC50;nom) AB (converted)): 97.7 µM
- IC50 ([7]; ZF4, 48 h exposure, nominal, read-out: IC50;nom AB): 97.5 µM
- IC50 ([8]; AB - ZFL, log10 of IC50, read-out: LogIC50 (converted)): 69.6 µM
- IC50 ([8]; AB - ZFL, read-out: IC50): 69.6 µM
- IC50 ([8]; ZFL, 48 h exposure, nominal, log10, read-out: logIC50 (log10 IC50;nom) AB (converted)): 69.2 µM
- IC50 ([8]; ZFL, 48 h exposure, nominal, read-out: IC50;nom AB): 69.6 µM
- IC50 ([9]; CFDA - ZF4, log10 of IC50, read-out: LogIC50 (converted)): 104 µM
- IC50 ([9]; CFDA - ZF4, read-out: IC50): 104 µM
- IC50 ([9]; ZF4, 48 h exposure, nominal, log10, read-out: logIC50 (log10 IC50;nom) CFDA (converted)): 105 µM
- IC50 ([9]; ZF4, 48 h exposure, nominal, read-out: IC50;nom CFDA): 104 µM
- IC50 ([10]; CFDA - ZFL, log10 of IC50, read-out: LogIC50 (converted)): 122 µM
- IC50 ([10]; CFDA - ZFL, read-out: IC50): 122 µM
- IC50 ([10]; ZFL, 48 h exposure, nominal, log10, read-out: logIC50 (log10 IC50;nom) CFDA (converted)): 123 µM
- IC50 ([10]; ZFL, 48 h exposure, nominal, read-out: IC50;nom CFDA): 122 µM
- IC50 ([11]; NR-abs - ZF4, log10 of IC50, read-out: LogIC50 (converted)): 49.4 µM
- IC50 ([11]; NR-abs - ZF4, read-out: IC50): 49.4 µM
- IC50 ([11]; ZF4, 48 h exposure, nominal, log10, read-out: logIC50 (log10 IC50;nom) NRa (converted)): 49 µM
- IC50 ([11]; ZF4, 48 h exposure, nominal, read-out: IC50;nom NRa): 49.4 µM
- IC50 ([11]; ZF4 cell line, NRa endpoint, nominal, read-out: IC50;nom): 21 µg/mL
- IC50 ([12]; NR-abs - ZFL, log10 of IC50, read-out: LogIC50 (converted)): 84.7 µM
- IC50 ([12]; NR-abs - ZFL, read-out: IC50): 84.7 µM
- IC50 ([12]; ZFL, 48 h exposure, nominal, log10, read-out: logIC50 (log10 IC50;nom) NRa (converted)): 85.1 µM
- IC50 ([12]; ZFL, 48 h exposure, nominal, read-out: IC50;nom NRa): 84.7 µM
- IC50 ([13]; NR-fluo - ZF4, log10 of IC50, read-out: LogIC50 (converted)): 81.3 µM
- IC50 ([13]; NR-fluo - ZF4, read-out: IC50): 81.3 µM
- IC50 ([13]; ZF4, 48 h exposure, nominal, log10, read-out: logIC50 (log10 IC50;nom) NRf (converted)): 81.3 µM
- IC50 ([13]; ZF4, 48 h exposure, nominal, read-out: IC50;nom NRf): 81.3 µM
- IC50 ([14]; NR-fluo - ZFL, log10 of IC50, read-out: LogIC50 (converted)): 78.7 µM
- IC50 ([14]; NR-fluo - ZFL, read-out: IC50): 78.7 µM
- IC50 ([14]; ZFL, 48 h exposure, nominal, log10, read-out: logIC50 (log10 IC50;nom) NRf (converted)): 79.4 µM
- IC50 ([14]; ZFL, 48 h exposure, nominal, read-out: IC50;nom NRf): 78.7 µM
- difference in toxicity (EC50;nom) between 48 hpf and 144 hpf (zebrafish embryos [15]; 48 hpf time point less sensitive than 144 hpf): marginally more toxic
- log EC50;nom (mFET) (zebrafish embryos [15]; 48 hpf, nominal, log10, listed as Tol): -4.897 M
- EC50 (zebrafish embryos [15]; 48 hpf, nominal, log10, read-out: log EC50;nom (mFET) (converted)): 12.6 µM
- EC50 (zebrafish embryos [15]; 48 hpf, nominal, read-out: EC50;nom (embryo)): 5.4 µg/mL
- EC50 (zebrafish embryos [15]; read-out: EC50 48hpf): 12.7 µM
- EC50 (zebrafish embryos [15]; read-out: EC50;nom (mFET)): 12.7 µM
- IC50 (ZF4 and ZFL cell lines; Danio rerio, log10, read-out: Mean log IC50nom (converted)): 85.1 µM
- Mean log IC50nom (ZF4 and ZFL cell lines; log10, listed as Tol): -4.074 M
- in vitro toxicity (IC50;free) higher than EC50;nom ([16]; ZF4 NRa endpoint vs embryo): 2 fold
- potency ratio IC50;nom/EC50;nom (median) ([16]; median over cytotoxicity endpoints, nominal, 48 h cells / 48 hpf mFET): 6.54
- EC50 (zebrafish embryos [17]; 144 hpf, converted): 2.59 µM
- logEC50 144 hpf (zebrafish embryos [17]; log10): -5.5874 M
- BCF [18]: 14.3
- Physiological charge [18]: 0
- Water Solubility [18]: insoluble
- logKoa [18]: 10.2
- logKow [18]: 4.31
- pKa (Strongest Acidic) [18]: 6.47
- w_solubility (water solubility) [18]: 106 µM
